Tests used:
ASGP-R complex = target: T1, ASGP-R complex (Homo sapiens, UniProt P07306+P07307); conditions: cited from earlier work
T1 sequence (P07306 1-291): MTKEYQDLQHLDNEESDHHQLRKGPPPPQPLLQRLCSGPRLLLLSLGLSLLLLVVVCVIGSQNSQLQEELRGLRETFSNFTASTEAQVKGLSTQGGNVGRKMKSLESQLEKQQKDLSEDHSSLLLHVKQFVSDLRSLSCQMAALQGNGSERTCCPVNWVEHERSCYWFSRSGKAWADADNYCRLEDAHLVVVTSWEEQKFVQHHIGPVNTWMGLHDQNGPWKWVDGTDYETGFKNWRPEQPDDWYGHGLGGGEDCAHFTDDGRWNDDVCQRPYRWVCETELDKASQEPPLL
T1 sequence (P07307 1-311): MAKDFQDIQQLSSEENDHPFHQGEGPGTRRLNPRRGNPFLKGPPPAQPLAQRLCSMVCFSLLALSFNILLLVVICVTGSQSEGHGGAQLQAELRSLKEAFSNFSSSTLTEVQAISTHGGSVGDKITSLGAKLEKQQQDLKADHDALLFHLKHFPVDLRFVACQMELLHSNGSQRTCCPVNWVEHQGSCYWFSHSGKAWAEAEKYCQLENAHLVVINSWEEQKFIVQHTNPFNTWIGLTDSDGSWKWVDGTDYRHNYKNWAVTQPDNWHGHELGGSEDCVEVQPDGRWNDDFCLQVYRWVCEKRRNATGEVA

THLE2 cells = assay: Lipid accumulation in NASH-induced human cells (THLE2) (Example 1); assay type: cell-based; conditions: FIG. 4A, 4B
Method: THLE-2 cells were purchased from ATCC (ATCC® CRL-2706TM). They were maintained on Bronchial Epithelial Growth Medium (BEGMTM, Lonza) supplemented with BEGM Bullet KitTM (Lonza) and 10%FBS. They were split with 0.05% trypsin-EDTA and collected in BEGM. After centrifugation at 123 g during 5 minutes, supernatant was discarded and pellet resuspended.
Cells were transfected with specific siRNAs (Hs n7o for human CNNM4 and Mm n7o for mouse CNNM4) at a final concentration of 100 nM using DharmaFECT 1 reagent (Dharmacon) following manufacturer’s protocol. DharmaFECT 1 and siRNA were diluted separately in 0% FBS/1% PSG MEM for 5′ at RT. Dilutions were then mixed and incubated 20′ at RT. siRNA transfection mixes were then added to cell suspension medium and replaced for fresh medium after 6 h.
Cells were transfected with a CNNM4 shRNA (SEQ ID NO: 454) by using lipofectamine® 3000 (Thermofisher) and following the protocol according manufacturer instructions. […]
(§1) Primary hepatocytes cultured in high lipid content medium (OA) or methionine/choline deficient medium (MDMC) were fixed in 4% paraformaldehyde (10′, RT) in PBS and incubated with BODIPY 493/503 (Molecular Probes, Invitrogen) at 1 mg/ml (1h, RT). […] Quantification of lipid bodies was performed using Frida Software and represented as mean area per total number of cells.

CNNM4 mRNA = CNNM4 mRNA in liver of wild-type mice after single subcutaneous dose (Examples 12-14); assay type: in vivo, mouse; conditions: wild-type C57BL/6 mice
Method: (§2) Five- to seven-week old male C57BL/6 mice were treated with a single dose of 1 or 5 mg siRNA conjugate per kg body weight by subcutaneous injection. Control groups received a subcutaneous injection with the vehicle PBS. Two weeks after the treatment, liver samples were collected from all mice and snap frozen. RNA was extracted from liver samples and CNNM4 and Actin mRNA levels were determined by Taqman qRT-PCR. Values obtained for CNNM4 mRNA were normalized to values generated for the housekeeping gene Actin and related to mean of untreated sample (ut) set at 1-fold target gene expression. Each bar represents mean value from 6 animals +/-SD.
Five- to seven-week old male C57BL/6 mice were treated with a single dose of 0.3 or 1 mg siRNA conjugate per kg body weight by subcutaneous injection. Control groups received a subcutaneous injection with the vehicle PBS. Two weeks after the treatment, liver samples were collected from all mice and snap frozen. RNA was extracted from liver samples and CNNM4 and Actin mRNA levels were determined by Taqman qRT-PCR. Values obtained for CNNM4 mRNA were normalized to values generated for the housekeeping gene Actin and related to mean of untreated sample (ut) set at 1-fold target gene expression. Each bar represents mean value from 6 animals +/-SD.
as §2, with “1” for “1 or 5”, “Five” for “Two”, “PBS treated cohort (PBS)” for “untreated sample (ut)”

primary hepatocytes [1] = assay: Lipid content in NASH-induced primary hepatocytes, BODIPY (Example 1); assay type: cell-based, mouse
Method: Primary hepatocytes from 3-month old wild-type (C57BL/6J) mice were isolated by perfusion with collagenase Type I (Worthington, USA). Briefly, animals were anesthetized with isoflurane (1.5% isoflurane in O2). […] Liver was perfused with buffer A (1x PBS, 5 mM EGTA, 37° C. and oxygenated) and the portal vein was cut. Next, liver was perfused with buffer B (1x PBS, 1 mM CaCl2 37° C. and oxygenated) to remove EGTA, and finally perfused with buffer C (1x PBS, 2 mM CaCl2, 0.65 BSA, collagenase type I, 37° C. and oxygenated). After buffer C perfusion, liver was separated from the resto of the body and placed into a petri dish with MEM (Gibco, USA). Gall bladder was carefully removed and, then, liver was mechanically disaggregated with forceps. […]
as §1

primary hepatocytes [2] = assay: Intracellular magnesium levels in primary hepatocytes (Example 1); assay type: cell-based, mouse; conditions: NASH-induced primary hepatocytes; FIG. 7B
Method: Primary hepatocytes grown in glass coverslips were loaded with 2 µM Mag-S-Tz or 1 µM Mag-S-Tz-AM diluted REF (Gruskos et al., 2016. J. Am. Chem. Soc. 138 (44), pp 14639-14649) in 0% FBS/1% PSG medium and incubated at 37° C. and 5% CO2 during 30′ or 1 h respectively. After removing the dye-containing medium, a 30′ incubation in 0% FBS/1% PSG was performed. Coverslips were then washed in a 20 mM Tris-HCl, 2.4 mM CaCl2, 10 mM glucose, pH 7.4 buffer and mounted on a perfusion chamber with thermostat on a Eclipse TE 300-based microspectrofluorometer (Nikon, USA) and visualized with a 40x oil-immersion fluorescence. Intracellular Mg2+ levels were determines using the method described by Grynkiewicz (Grynkiewiz et al., 1985. J Biol Chem. 260(6):3440-50). The 340/380 nm excited light ratio was determined with a Delta system (Photon Technologies International, Princeton) and converted into Mg^2+ concentration from the standard equation: […]

For `CC(=O)N[C@H]1C(O)O[C@H](CO)[C@H](O)[C@@H]1O` (stereo partly drawn) [GalNAc, 2-(Acetylamino)-2-deoxy-D-galactopyranose], the “Affinity for the ASGP-R complex relative to D-Gal” value (ASGP-R complex) is given as 50 fold.
With “CNNM4 shRNA: CNNM4 shRNA (SEQ ID NO: 454) (UCUCUGCCUUCAAGGAUGCGGACAAUGAG; listed as RNA, chemistry not fully specified)” the Lipid content (THLE2 cells) was “returns to healthy levels”.
In the case of “EU420: CNNM4 siRNA conjugate, duplex EU414A/EU420B; consists of SEQ ID NO: 237 and SEQ ID NO: 460 (chain 1 UGACAAAAGACACAAGAGU; chain 2 ACUCUUGUGUCUUUUGUCA; conjugate, chemistry not fully specified)”, the “CNNM4 mRNA levels in the liver” value (CNNM4 mRNA; five weeks after single dose of 1 mg/kg s.c., FIG. 20) is reported as “reduction of CNNM4 mRNA levels” and the “CNNM4 mRNA levels in the liver” value (CNNM4 mRNA; two weeks after single dose of 0.3 or 1 mg/kg s.c., FIG. 19) is reported as “reduction of CNNM4 mRNA levels”.
For `Nc1c[nH]c(=O)c2cc(-c3ccccc3)sc12` [7-amino-2-phenyl-5H-thieno[3,2-c]pyridin-4-one, reference compound], the Lipid content (primary hepatocytes [1]; NASH-induced primary hepatocytes, FIG. 3A, 5A, 7A) was “decreases its lipid content” and the Intracellular magnesium levels (primary hepatocytes [2]) was “accumulate magnesium”.
With Magnesium the Lipid content (primary hepatocytes [1]; primary hepatocytes with CNNM4 overexpression, FIG. 5B) was “does not reduce lipid content”.
